Test results: ChEMBL document CHEMBL3797063, “Evaluation of N-substituent structural variations in opioid receptor profile of LP1” (Bioorg Med Chem, 2016)
The source made the active and inactive calls. No cut-off for these calls is given here.

What was measured:
[1] = Selectivity index, ratio of Ki for human KOR to Ki for rat MOR
[2] = target: T1, Kappa-type opioid receptor (Homo sapiens, UniProt P41145); assay: Displacement of [3H]-DPN from human KOR expressed in EE-HEK293 cell membranes by liquid scintillation counting
Rattus norvegicus = species on record: Rattus norvegicus; assay: Selectivity index, ratio of Ki for rat DOR to Ki for rat MOR
Mu-type opioid receptor [3] = target: Mu-type opioid receptor (Rattus norvegicus, UniProt P33535); assay: Displacement of [3H]-DPN from rat MOR expressed in EE-HEK293 cell membranes by liquid scintillation counting
[4] = target: Delta-type opioid receptor (Rattus norvegicus, UniProt P33533); assay: Displacement of [3H]-DPN from rat DOR expressed in EE-HEK293 cell membranes by liquid scintillation counting
Mu-type opioid receptor [5] = target: T2, Mu-type opioid receptor (Cavia porcellus, UniProt P97266); assay: Agonist activity at MOR in Dunkin-Hartley guinea pig ileum assessed as inhibition of EFS-induced contractions incubated for 60 mins
[6] = target: T3, Delta-type opioid receptor (Mus musculus, UniProt P32300); assay: (§1) Agonist activity at DOR in CD1 mouse vas deferens assessed as inhibition of EFS-induced contractions incubated for 60 mins; assay type: tissue-based
Mus musculus [7] = assay: Reduction in morphine-induced antinociceptive effect in sc dosed Swiss […] mouse assessed as tail flick latencies dosed 45 mins before 5 mg/kg, sc morphine injection by tail flick test; assay type: ADME, organism-based; details: in vivo, 0.75 h
[8] = target: T1, Kappa-type opioid receptor; assay: Activity at human KOR expressed in EE-HEK293 cells assessed as pEC50 for effect on (-)U50,488H-induced response (reference value: […] +/- […]); assay type: cell-based
Mus musculus [9] = assay: Effect on basal tail flick latencies in Swiss […] mouse at 1 to 15 mg/kg, sc during 90 mins by tail flick test; assay type: ADME, organism-based; details: in vivo, 1.5 h
[10] = target: Delta-type opioid receptor (Mus musculus) (UniProt P32300); assay: as §1; assay type: tissue-based
[11] = target: T3, Delta-type opioid receptor; assay: Antagonist activity at DOR in CD1 mouse vas deferens assessed as reduction in DPDPE-induced inhibition of EFS-evoked contractions incubated for 60 mins; assay type: tissue-based; details: read-out: pA2 (converted)
Mu-type opioid receptor [12] = target: T2, Mu-type opioid receptor; assay: Antagonist activity at MOR in Dunkin-Hartley guinea pig ileum assessed as reduction in DAMGO-induced inhibition of EFS-induced contractions incubated for 60 mins; assay type: tissue-based; details: read-out: pA2 (converted)

T3 sequence (P32300 whole entry): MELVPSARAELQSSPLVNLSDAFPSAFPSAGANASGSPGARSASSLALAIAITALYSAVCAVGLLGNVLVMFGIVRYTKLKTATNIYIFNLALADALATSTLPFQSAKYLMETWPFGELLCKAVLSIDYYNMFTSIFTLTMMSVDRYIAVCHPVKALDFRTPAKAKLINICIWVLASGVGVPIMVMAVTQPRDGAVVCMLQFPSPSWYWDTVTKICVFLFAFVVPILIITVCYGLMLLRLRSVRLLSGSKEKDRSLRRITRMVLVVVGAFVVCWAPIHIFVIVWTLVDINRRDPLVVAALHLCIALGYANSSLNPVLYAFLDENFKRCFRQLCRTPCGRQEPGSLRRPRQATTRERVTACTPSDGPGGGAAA
T2 sequence (P97266 whole entry): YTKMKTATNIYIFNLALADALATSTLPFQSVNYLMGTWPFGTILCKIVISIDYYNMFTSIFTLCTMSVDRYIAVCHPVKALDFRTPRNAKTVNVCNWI
Mu-type opioid receptor (Rattus norvegicus, UniProt P33535), sequence (P33535 whole entry): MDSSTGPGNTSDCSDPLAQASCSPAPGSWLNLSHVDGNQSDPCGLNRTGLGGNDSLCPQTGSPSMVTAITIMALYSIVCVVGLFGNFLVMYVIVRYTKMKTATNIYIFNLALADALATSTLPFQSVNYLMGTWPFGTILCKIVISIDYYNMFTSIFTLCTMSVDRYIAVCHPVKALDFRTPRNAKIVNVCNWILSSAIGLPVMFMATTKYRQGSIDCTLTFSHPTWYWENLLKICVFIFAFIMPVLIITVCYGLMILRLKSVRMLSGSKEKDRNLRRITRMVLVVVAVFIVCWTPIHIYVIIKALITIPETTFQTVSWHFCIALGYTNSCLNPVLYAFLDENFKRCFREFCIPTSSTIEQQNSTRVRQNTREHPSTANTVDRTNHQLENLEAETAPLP
T1 sequence (P41145 whole entry): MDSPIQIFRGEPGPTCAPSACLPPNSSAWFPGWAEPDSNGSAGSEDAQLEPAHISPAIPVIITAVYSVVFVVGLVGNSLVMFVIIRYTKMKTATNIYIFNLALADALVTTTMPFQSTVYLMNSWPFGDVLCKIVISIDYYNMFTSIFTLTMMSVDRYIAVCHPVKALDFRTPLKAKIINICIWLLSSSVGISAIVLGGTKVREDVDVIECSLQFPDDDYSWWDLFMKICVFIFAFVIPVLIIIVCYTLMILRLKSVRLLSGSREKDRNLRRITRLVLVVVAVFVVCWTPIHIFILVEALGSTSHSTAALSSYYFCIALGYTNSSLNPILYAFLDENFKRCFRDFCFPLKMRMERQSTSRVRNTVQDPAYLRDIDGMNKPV
Delta-type opioid receptor (Rattus norvegicus, UniProt P33533), sequence (P33533 whole entry): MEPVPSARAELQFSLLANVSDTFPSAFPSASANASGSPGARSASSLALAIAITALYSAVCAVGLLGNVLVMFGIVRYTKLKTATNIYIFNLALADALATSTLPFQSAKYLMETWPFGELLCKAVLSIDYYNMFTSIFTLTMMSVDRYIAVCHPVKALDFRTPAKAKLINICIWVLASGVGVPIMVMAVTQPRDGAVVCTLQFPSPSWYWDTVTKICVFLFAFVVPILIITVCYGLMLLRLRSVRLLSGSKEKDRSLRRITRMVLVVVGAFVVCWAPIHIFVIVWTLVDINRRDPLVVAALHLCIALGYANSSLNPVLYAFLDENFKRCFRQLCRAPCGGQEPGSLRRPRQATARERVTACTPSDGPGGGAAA
Delta-type opioid receptor (Mus musculus), sequence (P32300 whole entry): as the sequence (P32300 whole entry) above

`C[C@H]1[C@H]2Cc3ccc(O)cc3[C@]1(C)CCN2CCC(=O)Nc1cccc2ncccc12` gave a Ratio Ki [1] of 0.5, a Ki [2] of 1.54 µM and a Ratio Ki (Rattus norvegicus) of 0.1. It also gave a Ki (Mu-type opioid receptor [3]) of 3.19 µM and a Ki [4] of 0.31 µM.
`C[C@H]1[C@H]2Cc3ccc(O)cc3[C@]1(C)CCN2CCC(=O)Nc1cnc2ccccc2c1` showed a Ratio Ki [1] of 5.4, a Ki [2] of 6.47 µM and a Ratio Ki (Rattus norvegicus) of 0.62. The Ki (Mu-type opioid receptor [3]) was 1.19 µM and the Ki [4] was 0.74 µM.
Compound `C[C@@H](NC(=O)[C@@H](N)Cc1ccc(O)cc1)C(=O)NCC(=O)N(C)[C@@H](Cc1ccccc1)C(=O)NCCO` [DAMGO] has an EC50 (Mu-type opioid receptor [5]) of 0.158 µM.
Compound `C[C@H]1[C@H]2Cc3ccc(O)cc3[C@]1(C)CCN2CCC(=O)Nc1ccc2ncccc2c1` has a Ratio Ki [1] of 1, a Ki [2] of 4.4 µM and a Ratio Ki (Rattus norvegicus) of 0.07. For the same compound, the Ki (Mu-type opioid receptor [3]) was 4.56 µM and the Ki [4] was 0.33 µM.
Work on `C[C@H]1[C@H]2Cc3ccc(O)cc3[C@]1(C)CCN2CCC(=O)Nc1cccc2cnccc12` yielded an EC50 (Mu-type opioid receptor [5]) of 20 µM, an EC50 [6] of 158 µM and a Ratio Ki [1] of 58. It also gave a Ki [2] of 2.9 µM, a Ratio Ki (Rattus norvegicus) of 3.6 and a Ki (Mu-type opioid receptor [3]) of 0.05 µM. For the same compound, the Ki [4] was 0.18 µM.
`C[C@H]1[C@H]2Cc3ccc(O)cc3[C@]1(C)CCN2CCC(=O)Nc1cccc2cccnc12` gave a Ratio Ki [1] of 0.07, a Ki [2] of 0.23 µM and a Ratio Ki (Rattus norvegicus) of 0.16. The Ki (Mu-type opioid receptor [3]) was 3.41 µM and the Ki [4] was 0.54 µM.
In the case of `C[C@H]1[C@H]2Cc3ccc(O)cc3[C@]1(C)CCN2CCC(=O)Nc1cccc2ccccc12`, the AD50 (Mus musculus [7]) is reported as 2 mg/kg, the Activity (Mus musculus [7]) is reported as “Dose-dependent effect” and the EC50 [8] is reported as 10 µM. For the same compound, the Activity (Mus musculus [9]) was “Non-toxic”, the Activity [10] was “inactive” and the Ratio Ki [1] was 21.1. For the same compound, the Kb [11] was 0.0251 µM, the Ki [2] was 0.8 µM and the Ratio Ki (Rattus norvegicus) was 5.5. The Ki (Mu-type opioid receptor [3]) was 0.038 µM, the Ki [4] was 0.21 µM and the Kb (Mu-type opioid receptor [12]) was 0.00251 µM.
In the case of `C[C@H]1[C@H]2Cc3ccc(O)cc3[C@]1(C)CCN2CCC(=O)Nc1ccccc1`, the EC50 (Mu-type opioid receptor [5]) is reported as 0.794 µM, the Activity [10] is reported as “inactive” and the Ratio Ki [1] is reported as 153. The Kb [11] was 0.0631 µM and the Ratio Ki (Rattus norvegicus) was 0.67.
